Reference: publication PMC12281475, “Mediator Kinase Inhibitor Selectivity and Activity in Colorectal Cancer” (ACS Chemical Biology, 2025)

Columns and labels:
Assay type in all cases: biochemical
[1] = target: T1, CDK1_CycA2 (Homo sapiens, UniProt P06493); test: Radiometric protein kinase assay (33PanQinase), CDK1_CycA2; conditions: for Hill Slope: slope of the IC50 fit
T1 construct: purchased Reaction Biology

[2] = target: T2, CDK1_CycB1 (Homo sapiens, UniProt P06493); test: Radiometric protein kinase assay (33PanQinase), CDK1_CycB1; conditions: for Hill Slope: slope of the IC50 fit
T2 construct: purchased Reaction Biology

[3] = target: T3, CDK1_CycE1 (Homo sapiens, UniProt P06493); test: Radiometric protein kinase assay (33PanQinase), CDK1_CycE1; conditions: for IC50: highest assay concentration 1.00E-05 M, read-out: IC50; for Hill Slope: slope of the IC50 fit
T3 construct: purchased Reaction Biology

[4] = target: CDK10_CycQ (Homo sapiens, UniProt Q15131); test: Radiometric protein kinase assay (33PanQinase), CDK10_CycQ; conditions: for Hill Slope: slope of the IC50 fit
Chain of CDK10_CycQ (Q15131 whole entry): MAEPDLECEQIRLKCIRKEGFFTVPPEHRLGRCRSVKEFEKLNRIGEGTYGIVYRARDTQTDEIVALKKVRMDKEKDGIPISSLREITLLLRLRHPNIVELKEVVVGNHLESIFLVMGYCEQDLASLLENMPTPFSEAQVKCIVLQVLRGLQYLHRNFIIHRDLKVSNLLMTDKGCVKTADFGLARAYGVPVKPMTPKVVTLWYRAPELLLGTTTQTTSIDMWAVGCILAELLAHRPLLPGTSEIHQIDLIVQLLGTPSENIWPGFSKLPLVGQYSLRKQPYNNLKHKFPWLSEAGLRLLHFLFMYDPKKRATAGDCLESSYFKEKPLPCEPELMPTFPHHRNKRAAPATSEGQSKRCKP
Chain of CDK10_CycQ (Q8N1B3 whole entry partner): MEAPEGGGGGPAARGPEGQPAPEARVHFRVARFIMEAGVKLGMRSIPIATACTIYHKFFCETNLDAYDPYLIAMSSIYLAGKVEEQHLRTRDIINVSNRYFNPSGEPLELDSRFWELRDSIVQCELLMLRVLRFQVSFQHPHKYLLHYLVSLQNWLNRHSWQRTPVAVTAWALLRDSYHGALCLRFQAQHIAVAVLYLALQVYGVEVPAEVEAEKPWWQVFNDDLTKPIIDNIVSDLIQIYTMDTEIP

[5] = target: CDK11B 357-795_CycK (Homo sapiens, UniProt P21127); test: Radiometric protein kinase assay (33PanQinase), CDK11B 357-795_CycK; conditions: for Hill Slope: slope of the IC50 fit
[6] = target: T4, CDK12_CycK (Homo sapiens, UniProt Q9NYV4); test: Radiometric protein kinase assay (33PanQinase), CDK12_CycK; conditions: for Hill Slope: slope of the IC50 fit
T4 construct: purchased Reaction Biology
T4 sequence (Q9NYV4 whole entry): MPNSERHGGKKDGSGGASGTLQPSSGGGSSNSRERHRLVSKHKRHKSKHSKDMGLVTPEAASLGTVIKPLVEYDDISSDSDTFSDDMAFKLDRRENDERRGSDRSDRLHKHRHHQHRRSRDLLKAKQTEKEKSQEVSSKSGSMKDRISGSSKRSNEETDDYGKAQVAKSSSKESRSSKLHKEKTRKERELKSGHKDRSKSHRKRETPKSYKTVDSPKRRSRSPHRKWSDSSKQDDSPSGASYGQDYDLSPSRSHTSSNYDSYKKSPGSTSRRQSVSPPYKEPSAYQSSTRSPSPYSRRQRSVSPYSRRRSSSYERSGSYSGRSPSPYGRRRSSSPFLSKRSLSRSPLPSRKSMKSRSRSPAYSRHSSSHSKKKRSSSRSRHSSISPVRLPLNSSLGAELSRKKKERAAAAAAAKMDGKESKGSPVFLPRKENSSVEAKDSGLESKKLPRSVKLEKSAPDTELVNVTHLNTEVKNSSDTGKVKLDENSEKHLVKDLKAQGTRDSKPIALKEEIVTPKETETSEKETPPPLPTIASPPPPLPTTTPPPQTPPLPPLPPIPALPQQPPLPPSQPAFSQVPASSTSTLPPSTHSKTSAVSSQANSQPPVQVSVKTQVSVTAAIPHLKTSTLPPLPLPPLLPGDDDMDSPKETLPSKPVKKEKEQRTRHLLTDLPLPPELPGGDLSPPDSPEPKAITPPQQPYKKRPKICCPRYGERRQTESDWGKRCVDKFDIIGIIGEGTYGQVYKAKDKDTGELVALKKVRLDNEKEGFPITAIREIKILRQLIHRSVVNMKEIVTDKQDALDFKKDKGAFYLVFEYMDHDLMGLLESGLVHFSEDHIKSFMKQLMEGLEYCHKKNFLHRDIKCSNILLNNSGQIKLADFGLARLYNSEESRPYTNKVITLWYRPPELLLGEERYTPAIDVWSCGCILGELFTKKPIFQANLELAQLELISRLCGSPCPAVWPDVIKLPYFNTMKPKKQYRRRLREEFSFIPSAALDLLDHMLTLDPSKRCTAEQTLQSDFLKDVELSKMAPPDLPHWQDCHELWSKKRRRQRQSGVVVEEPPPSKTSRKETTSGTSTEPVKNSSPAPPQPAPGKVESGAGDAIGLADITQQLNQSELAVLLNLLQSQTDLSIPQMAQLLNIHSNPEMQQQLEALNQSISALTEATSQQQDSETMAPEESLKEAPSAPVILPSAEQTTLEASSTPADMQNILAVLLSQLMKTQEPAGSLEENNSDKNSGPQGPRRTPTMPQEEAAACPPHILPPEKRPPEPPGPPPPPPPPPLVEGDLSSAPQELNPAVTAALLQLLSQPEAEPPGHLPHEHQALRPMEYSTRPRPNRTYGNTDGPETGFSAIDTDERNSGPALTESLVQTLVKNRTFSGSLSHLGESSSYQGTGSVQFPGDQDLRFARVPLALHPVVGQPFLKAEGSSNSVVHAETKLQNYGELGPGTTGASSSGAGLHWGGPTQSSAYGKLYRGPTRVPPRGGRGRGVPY
T4 sequence (O75909 whole entry partner): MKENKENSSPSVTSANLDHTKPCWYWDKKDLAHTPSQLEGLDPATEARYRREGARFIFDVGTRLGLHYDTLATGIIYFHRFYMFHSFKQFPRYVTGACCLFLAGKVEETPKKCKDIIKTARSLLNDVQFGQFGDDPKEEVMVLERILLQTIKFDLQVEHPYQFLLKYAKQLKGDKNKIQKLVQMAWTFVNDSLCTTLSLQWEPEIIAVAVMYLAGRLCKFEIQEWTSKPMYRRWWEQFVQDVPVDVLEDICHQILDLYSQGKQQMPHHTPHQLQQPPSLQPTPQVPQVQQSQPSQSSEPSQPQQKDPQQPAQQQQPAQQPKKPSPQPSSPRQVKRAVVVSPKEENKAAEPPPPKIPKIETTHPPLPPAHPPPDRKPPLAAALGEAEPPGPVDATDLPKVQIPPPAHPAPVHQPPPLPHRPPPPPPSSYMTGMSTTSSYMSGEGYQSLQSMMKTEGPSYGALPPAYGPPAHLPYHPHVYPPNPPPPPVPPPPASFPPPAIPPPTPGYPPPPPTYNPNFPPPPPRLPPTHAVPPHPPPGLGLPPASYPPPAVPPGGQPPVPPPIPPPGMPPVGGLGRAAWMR

[7] = target: T5, CDK13_CycK (Homo sapiens, UniProt Q14004); test: Radiometric protein kinase assay (33PanQinase), CDK13_CycK; conditions: for Hill Slope: slope of the IC50 fit
T5 construct: purchased Reaction Biology

[8] = target: CDK14_CycY (Homo sapiens, UniProt O94921); test: Radiometric protein kinase assay (33PanQinase), CDK14_CycY; conditions: for Hill Slope: slope of the IC50 fit
[9] = target: T6, CDK15_CycA2 (Homo sapiens, UniProt Q96Q40); test: Radiometric protein kinase assay (33PanQinase), CDK15_CycA2; conditions: for IC50: highest assay concentration 1.00E-05 M; for Hill Slope: slope of the IC50 fit
T6 construct: purchased Reaction Biology

[10] = target: T7, CDK16_CycY (Homo sapiens, UniProt Q00536); test: Radiometric protein kinase assay (33PanQinase), CDK16_CycY; conditions: for Hill Slope: slope of the IC50 fit
T7 construct: purchased Reaction Biology

[11] = target: CDK17_p35NCK (Homo sapiens, UniProt Q00537); test: Radiometric protein kinase assay (33PanQinase), CDK17_p35NCK; conditions: slope of the IC50 fit
[12] = target: CDK18_CycY (Homo sapiens, UniProt Q07002); test: Radiometric protein kinase assay (33PanQinase), CDK18_CycY; conditions: for IC50: highest assay concentration 1.00E-05 M; for Hill Slope: slope of the IC50 fit
[13] = target: T8, CDK19_CycC (Homo sapiens, UniProt Q9BWU1); test: Radiometric protein kinase assay (33PanQinase), CDK19_CycC; conditions: for Hill Slope: slope of the IC50 fit
T8 construct: purchased Reaction Biology

[14] = target: T9, CDK2_CycA2 (Homo sapiens, UniProt P24941); test: Radiometric protein kinase assay (33PanQinase), CDK2_CycA2; conditions: for IC50: highest assay concentration 1.00E-05 M, read-out: IC50; for Hill Slope: slope of the IC50 fit
T9 construct: purchased Reaction Biology

[15] = target: T10, CDK2_CycD1 (Homo sapiens, UniProt P24941); test: Radiometric protein kinase assay (33PanQinase), CDK2_CycD1; conditions: slope of the IC50 fit
T10 construct: purchased Reaction Biology

[16] = target: T11, CDK2_CycE1 (Homo sapiens, UniProt P24941); test: Radiometric protein kinase assay (33PanQinase), CDK2_CycE1; conditions: for IC50: highest assay concentration 1.00E-05 M, read-out: IC50; for Hill Slope: slope of the IC50 fit
T11 construct: purchased Reaction Biology

[17] = target: CDK20_CycH (Homo sapiens, UniProt Q8IZL9); test: Radiometric protein kinase assay (33PanQinase), CDK20_CycH; conditions: for IC50: highest assay concentration 1.00E-05 M; for Hill Slope: slope of the IC50 fit
[18] = target: CDK20_CycT1 (Homo sapiens, UniProt Q8IZL9); test: Radiometric protein kinase assay (33PanQinase), CDK20_CycT1; conditions: for IC50: highest assay concentration 1.00E-05 M; for Hill Slope: slope of the IC50 fit
[19] = target: T12, CDK3_CycC (Homo sapiens, UniProt Q00526); test: Radiometric protein kinase assay (33PanQinase), CDK3_CycC; conditions: for Hill Slope: slope of the IC50 fit
T12 construct: purchased Reaction Biology

[20] = target: T13, CDK3_CycE1 (Homo sapiens, UniProt Q00526); test: Radiometric protein kinase assay (33PanQinase), CDK3_CycE1; conditions: for Hill Slope: slope of the IC50 fit
T13 construct: purchased Reaction Biology

[21] = target: T14, CDK4_CycD1 (Homo sapiens, UniProt P11802); test: Radiometric protein kinase assay (33PanQinase), CDK4_CycD1; conditions: for Hill Slope: slope of the IC50 fit
T14 construct: purchased Reaction Biology

[22] = target: T15, CDK4_CycD2 (Homo sapiens, UniProt P11802); test: Radiometric protein kinase assay (33PanQinase), CDK4_CycD2; conditions: for Hill Slope: slope of the IC50 fit
T15 construct: purchased Reaction Biology

[23] = target: T16, CDK4_CycD3 (Homo sapiens, UniProt P11802); test: Radiometric protein kinase assay (33PanQinase), CDK4_CycD3; conditions: for Hill Slope: slope of the IC50 fit
T16 construct: purchased Reaction Biology

[24] = target: T17, CDK5_p25NCK (Homo sapiens, UniProt Q00535); test: Radiometric protein kinase assay (33PanQinase), CDK5_p25NCK; conditions: for IC50: highest assay concentration 1.00E-05 M; for Hill Slope: slope of the IC50 fit
T17 construct: purchased Reaction Biology
T17 sequence (Q00535 whole entry): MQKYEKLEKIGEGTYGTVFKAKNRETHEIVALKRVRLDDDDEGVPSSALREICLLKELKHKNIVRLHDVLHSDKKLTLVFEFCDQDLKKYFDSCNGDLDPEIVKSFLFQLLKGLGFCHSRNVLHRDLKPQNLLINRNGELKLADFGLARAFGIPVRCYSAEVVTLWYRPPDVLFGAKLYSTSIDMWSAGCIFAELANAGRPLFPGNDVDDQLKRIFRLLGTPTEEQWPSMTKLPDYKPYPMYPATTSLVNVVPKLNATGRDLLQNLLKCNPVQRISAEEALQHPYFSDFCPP
T17 sequence (Q15078 99-307 partner limits assumed): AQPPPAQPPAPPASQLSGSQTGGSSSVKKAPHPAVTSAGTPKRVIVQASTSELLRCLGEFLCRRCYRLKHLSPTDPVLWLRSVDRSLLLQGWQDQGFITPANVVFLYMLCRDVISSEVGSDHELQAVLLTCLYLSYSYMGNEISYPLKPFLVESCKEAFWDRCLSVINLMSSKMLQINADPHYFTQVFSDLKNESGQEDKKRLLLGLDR

[25] = target: T18, CDK5_p35NCK (Homo sapiens, UniProt Q00535); test: Radiometric protein kinase assay (33PanQinase), CDK5_p35NCK; conditions: for IC50: highest assay concentration 1.00E-05 M; for Hill Slope: slope of the IC50 fit
T18 construct: purchased Reaction Biology
T18 sequence (Q00535 whole entry): as the sequence (Q00535 whole entry) above
T18 sequence (Q15078 whole entry partner): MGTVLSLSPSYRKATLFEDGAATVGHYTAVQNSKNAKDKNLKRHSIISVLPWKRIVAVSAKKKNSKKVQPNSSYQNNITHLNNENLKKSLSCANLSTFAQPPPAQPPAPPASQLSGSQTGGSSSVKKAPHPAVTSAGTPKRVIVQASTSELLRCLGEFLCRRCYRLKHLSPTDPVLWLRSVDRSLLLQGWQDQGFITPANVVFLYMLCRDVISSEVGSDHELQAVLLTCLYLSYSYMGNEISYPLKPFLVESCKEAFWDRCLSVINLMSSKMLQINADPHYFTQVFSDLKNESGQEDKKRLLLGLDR

[26] = target: T19, CDK6_CycD1 (Homo sapiens, UniProt Q00534); test: Radiometric protein kinase assay (33PanQinase), CDK6_CycD1; conditions: for Hill Slope: slope of the IC50 fit
T19 construct: purchased Reaction Biology

[27] = target: T20, CDK6_CycD2 (Homo sapiens, UniProt Q00534); test: Radiometric protein kinase assay (33PanQinase), CDK6_CycD2; conditions: for Hill Slope: slope of the IC50 fit
T20 construct: purchased Reaction Biology

[28] = target: T21, CDK6_CycD3 (Homo sapiens, UniProt Q00534); test: Radiometric protein kinase assay (33PanQinase), CDK6_CycD3; conditions: for Hill Slope: slope of the IC50 fit
T21 construct: purchased Reaction Biology

[29] = target: T22, CDK7_CycH_MAT1 (Homo sapiens, UniProt P50613); test: Radiometric protein kinase assay (33PanQinase), CDK7_CycH_MAT1; conditions: for Hill Slope: slope of the IC50 fit
T22 construct: purchased Reaction Biology

[30] = target: T23, CDK8_CycC (Homo sapiens, UniProt P49336); test: Radiometric protein kinase assay (33PanQinase), CDK8_CycC; conditions: for IC50: highest assay concentration 1.00E-05 M, read-out: IC50; for Hill Slope: slope of the IC50 fit
T23 construct: purchased Reaction Biology

[31] = target: T24, CDK9_CycK (Homo sapiens, UniProt P50750); test: Radiometric protein kinase assay (33PanQinase), CDK9_CycK; conditions: for IC50: highest assay concentration 1.00E-05 M; for Hill Slope: slope of the IC50 fit
T24 construct: purchased Reaction Biology
T24 sequence (P50750 whole entry): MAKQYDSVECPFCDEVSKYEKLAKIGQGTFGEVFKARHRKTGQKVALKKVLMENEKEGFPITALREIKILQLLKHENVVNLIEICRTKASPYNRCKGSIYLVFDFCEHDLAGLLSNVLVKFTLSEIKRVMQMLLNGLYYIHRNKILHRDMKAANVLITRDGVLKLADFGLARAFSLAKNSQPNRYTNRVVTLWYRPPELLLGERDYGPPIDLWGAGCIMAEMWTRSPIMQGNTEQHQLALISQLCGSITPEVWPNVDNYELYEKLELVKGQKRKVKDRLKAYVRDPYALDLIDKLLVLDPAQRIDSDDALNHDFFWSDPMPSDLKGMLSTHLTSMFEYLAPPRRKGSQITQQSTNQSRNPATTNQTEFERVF
T24 sequence (O75909 whole entry partner): as the sequence (O75909 whole entry partner) above

[32] = target: T25, CDK9_CycT1 (Homo sapiens, UniProt P50750); test: Radiometric protein kinase assay (33PanQinase), CDK9_CycT1; conditions: for IC50: highest assay concentration 1.00E-05 M; for Hill Slope: slope of the IC50 fit
T25 construct: purchased Reaction Biology
T25 sequence (P50750 whole entry): as the sequence (P50750 whole entry) above
T25 sequence (O60563 whole entry partner): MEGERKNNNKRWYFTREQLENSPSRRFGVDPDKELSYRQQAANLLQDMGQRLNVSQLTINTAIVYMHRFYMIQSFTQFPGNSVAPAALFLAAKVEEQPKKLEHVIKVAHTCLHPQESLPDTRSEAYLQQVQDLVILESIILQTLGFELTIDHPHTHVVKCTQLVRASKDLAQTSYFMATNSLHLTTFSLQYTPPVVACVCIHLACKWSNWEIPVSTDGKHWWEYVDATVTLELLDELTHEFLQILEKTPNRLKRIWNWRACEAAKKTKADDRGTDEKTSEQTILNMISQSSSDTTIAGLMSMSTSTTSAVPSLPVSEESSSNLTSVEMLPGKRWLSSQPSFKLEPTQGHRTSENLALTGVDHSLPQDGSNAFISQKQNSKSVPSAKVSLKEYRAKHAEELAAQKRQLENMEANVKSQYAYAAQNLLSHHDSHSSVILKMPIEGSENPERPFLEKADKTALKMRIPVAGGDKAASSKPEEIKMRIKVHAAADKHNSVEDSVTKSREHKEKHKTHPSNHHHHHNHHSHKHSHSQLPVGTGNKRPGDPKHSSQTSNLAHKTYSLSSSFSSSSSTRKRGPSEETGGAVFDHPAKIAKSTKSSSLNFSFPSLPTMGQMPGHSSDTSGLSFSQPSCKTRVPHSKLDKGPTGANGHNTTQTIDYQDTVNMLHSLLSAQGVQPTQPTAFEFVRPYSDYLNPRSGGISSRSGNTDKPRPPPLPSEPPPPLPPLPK

[33] = highest assay concentration 1.00E-05 M, read-out: IC50
[34] = highest assay concentration 1.00E-05 M

For `Cc1c(Br)c(Br)c2c3c1nc(N1CCNCC1)n3CCC2.Cl` [SEL120-34A, reference compound], the IC50 [1, 33] was 7.1 µM, the “Hill Slope” value [1] was -0.95 and the IC50 [2, 34] was 7.62 µM. The “Hill Slope” value [2] was -0.55, the IC50 [3] was 5 µM and the “Hill Slope” value [3] was -1.01. The “Hill Slope” value [4] was -0.83, the “Hill Slope” value [5] was -0.45 and the IC50 [6, 34] was 0.702 µM. The “Hill Slope” value [6] was -0.91, the IC50 [7, 33] was 0.292 µM and the “Hill Slope” value [7] was -0.51. The “Hill Slope” value [8] was -0.83, the IC50 [9] was 7.49 µM and the “Hill Slope” value [9] was -0.86. The “Hill Slope” value [10] was -0.52, the “Hill Slope” value [11] was -0.56 and the IC50 [12] was 7.84 µM. The “Hill Slope” value [12] was -0.81, the IC50 [13, 33] was 0.437 µM and the “Hill Slope” value [13] was -0.83. The IC50 [14] was 2.22 µM, the “Hill Slope” value [14] was -1.14 and the “Hill Slope” value [15] was -0.7. The IC50 [16] was 2.7 µM, the “Hill Slope” value [16] was -1.13 and the IC50 [17] was 1.13 µM. The “Hill Slope” value [17] was -0.52, the IC50 [18] was 1.12 µM and the “Hill Slope” value [18] was -0.7. The IC50 [19, 33] was 4.82 µM, the “Hill Slope” value [19] was -0.87 and the “Hill Slope” value [20] was -0.48. The “Hill Slope” value [21] was -0.69, the “Hill Slope” value [22] was -0.75 and the “Hill Slope” value [23] was -0.78. For the same compound, the IC50 [24] was 7.39 µM, the “Hill Slope” value [24] was -0.75 and the IC50 [25] was 4.55 µM. For the same compound, the “Hill Slope” value [25] was -0.92, the “Hill Slope” value [26] was -0.06 and the “Hill Slope” value [27] was -0.78. The “Hill Slope” value [28] was -0.38, the “Hill Slope” value [29] was -0.9 and the IC50 [30] was 0.193 µM. For the same compound, the “Hill Slope” value [30] was -0.81, the IC50 [31] was 0.597 µM and the “Hill Slope” value [31] was -1.14. For the same compound, the IC50 [32] was 0.957 µM and the “Hill Slope” value [32] was -1.23.
In the case of `CN1CCN(C(=O)c2ccc3cc(CCNc4ncnc5ccc(C#N)cc45)ccc3c2)CC1` [Senexin B, reference compound], the “Hill Slope” value [1] is reported as -0.17, the “Hill Slope” value [2] is reported as -0.12 and the IC50 [3] is reported as over 10 µM. The “Hill Slope” value [3] was -0.4, the IC50 [4, 34] was over 10 µM and the “Hill Slope” value [4] was -0.47. For the same compound, the IC50 [5, 34] was over 10 µM, the “Hill Slope” value [5] was -0.19 and the “Hill Slope” value [6] was -0.18. The “Hill Slope” value [7] was -0.12, the IC50 [8, 34] was over 10 µM and the “Hill Slope” value [8] was -0.57. For the same compound, the IC50 [9] was over 10 µM, the “Hill Slope” value [9] was -0.78 and the IC50 [10, 34] was over 10 µM. For the same compound, the “Hill Slope” value [10] was -0.95, the “Hill Slope” value [11] was -0.16 and the IC50 [12] was over 10 µM. The “Hill Slope” value [12] was -0.39, the “Hill Slope” value [13] was -0.53 and the IC50 [14] was over 10 µM. The “Hill Slope” value [14] was -0.76, the “Hill Slope” value [15] was -0.18 and the IC50 [16] was over 10 µM. For the same compound, the “Hill Slope” value [16] was -0.46, the IC50 [17] was over 10 µM and the “Hill Slope” value [17] was -0.32. For the same compound, the IC50 [18] was over 10 µM, the “Hill Slope” value [18] was -0.45 and the “Hill Slope” value [19] was -0.01. The IC50 [20, 33] was over 10 µM, the “Hill Slope” value [20] was -0.36 and the IC50 [21, 34] was over 10 µM. For the same compound, the “Hill Slope” value [21] was -0.51, the IC50 [22, 34] was over 10 µM and the “Hill Slope” value [22] was -0.64. The IC50 [23, 34] was over 10 µM, the “Hill Slope” value [23] was -0.51 and the IC50 [24] was over 10 µM. The “Hill Slope” value [24] was -0.24, the IC50 [25] was over 10 µM and the “Hill Slope” value [25] was -0.43. The IC50 [26, 34] was over 10 µM, the “Hill Slope” value [26] was -0.17 and the IC50 [27, 34] was over 10 µM. The “Hill Slope” value [27] was -0.36, the IC50 [28, 34] was over 10 µM and the “Hill Slope” value [28] was -0.32. The IC50 [29, 34] was over 10 µM, the “Hill Slope” value [29] was -0.55 and the IC50 [30] was 0.165 µM. The “Hill Slope” value [30] was -0.56, the IC50 [31] was 5.16 µM and the “Hill Slope” value [31] was -0.6. The IC50 [32] was 9.43 µM and the “Hill Slope” value [32] was -0.82.
